Substitutions are numbered along the chain they refer to.
Legend:
GlyT2 L198A mutant = GlyT2 L198A mutant (Homo sapiens, UniProt Q9Y345, L198A)
From the text: (§1) GlyT2a (referred to herein as GlyT2) was subcloned into the plasmid oocyte transcription vector (pOTV) for expression in Xenopus laevis oocytes. Oligonucleotide primers incorporating desired mutations were synthesized by Sigma-Aldrich and used to generate point mutations in the GlyT2 cDNA/pOTV construct using the Q5 site-directed mutagenesis kit (New England Biolabs [Genesearch]). Amplified PCR products were transformed into chemically competent E. coli cells and purified using the GeneJET Plasmid Miniprep Kit (Thermo Fisher Scientific). Purified plasmid DNA was sequence-verified by the Australian Genome Research Facility. pOTV constructs were linearized with the restriction enzyme SpeI (New England Biolabs [Genesearch]), and RNA was transcribed by T7 RNA polymerase using the mMESSAGE mMACHINE T7 kit (Thermo Fisher Scientific).
(§2) The transport activity of GlyT2 is an electrogenic process as it couples the transport of glycine to the co-transport of 3 Na^+ and 1 Cl^− and thus can be measured using two-electrode voltage-clamp electrophysiology. Oocytes expressing GlyTs were voltage-clamped at −60 mV, and glycine-induced whole-cell currents were measured using a GeneClamp 500 amplifier (Axon Instruments), and a PowerLab 2/26 chart recorder (ADInstruments) and LabChart Software (ADInstruments).
(§3) Functionality of WT and mutant GlyT2 transporters was assessed by applying increasing concentrations of glycine (1–3,000 µM) in ND96 until a stable current was achieved. Glycine concentrations were applied individually and completely removed from the system via washing with recording buffer before proceeding to the next concentration. EC50 values for each transporter were determined by fitting concentration–response data to the modified Michaelis–Menten equation: I=([Gly].Imax)/(EC50+[Gly]), where I is current in nA, [Gly] is the concentration of glycine, Imax is the current generated by a maximal concentration of glycine, and EC50 is the concentration of glycine that generates a half-maximal current.

GlyT2 Y430F mutant = biological target: T1, GlyT2 Y430F mutant (Homo sapiens, UniProt Q9Y345, Y430F); conditions: read-out: Glycine EC50; Y430F (TM5)
T1 sequence (Q9Y345 1-797 Y430F): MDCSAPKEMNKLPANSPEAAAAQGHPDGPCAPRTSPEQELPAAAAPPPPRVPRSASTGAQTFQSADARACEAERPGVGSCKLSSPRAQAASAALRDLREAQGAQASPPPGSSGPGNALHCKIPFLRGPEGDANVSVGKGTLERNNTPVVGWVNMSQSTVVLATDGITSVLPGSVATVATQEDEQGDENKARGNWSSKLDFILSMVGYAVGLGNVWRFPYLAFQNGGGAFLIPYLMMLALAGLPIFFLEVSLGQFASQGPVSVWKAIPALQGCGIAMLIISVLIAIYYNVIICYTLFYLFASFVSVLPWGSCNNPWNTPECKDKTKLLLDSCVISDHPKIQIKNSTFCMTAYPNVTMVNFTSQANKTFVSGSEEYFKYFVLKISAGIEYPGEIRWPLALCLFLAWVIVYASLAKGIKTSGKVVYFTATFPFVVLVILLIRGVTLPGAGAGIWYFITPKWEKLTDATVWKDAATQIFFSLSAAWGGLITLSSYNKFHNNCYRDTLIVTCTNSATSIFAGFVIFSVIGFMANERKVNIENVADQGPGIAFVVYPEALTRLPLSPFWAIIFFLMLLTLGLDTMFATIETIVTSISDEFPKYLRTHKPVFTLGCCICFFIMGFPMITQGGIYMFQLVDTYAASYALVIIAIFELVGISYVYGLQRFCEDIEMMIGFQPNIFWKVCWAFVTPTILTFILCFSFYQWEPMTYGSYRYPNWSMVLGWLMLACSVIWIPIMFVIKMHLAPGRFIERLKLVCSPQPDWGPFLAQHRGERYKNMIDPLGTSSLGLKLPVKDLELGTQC
From the text: as §1, §2, §3

GlyT2 Y430L mutant = biological target: T2, GlyT2 Y430L mutant (Homo sapiens, UniProt Q9Y345, Y430L); conditions: read-out: Glycine EC50; Y430L (TM5)
T2 sequence (Q9Y345 1-797 Y430L): T1 sequence (Q9Y345 1-797 Y430F) with F430L
From the text: as §1, §2, §3

GlyT2 L198A mutant, sequence (Q9Y345 whole entry L198A): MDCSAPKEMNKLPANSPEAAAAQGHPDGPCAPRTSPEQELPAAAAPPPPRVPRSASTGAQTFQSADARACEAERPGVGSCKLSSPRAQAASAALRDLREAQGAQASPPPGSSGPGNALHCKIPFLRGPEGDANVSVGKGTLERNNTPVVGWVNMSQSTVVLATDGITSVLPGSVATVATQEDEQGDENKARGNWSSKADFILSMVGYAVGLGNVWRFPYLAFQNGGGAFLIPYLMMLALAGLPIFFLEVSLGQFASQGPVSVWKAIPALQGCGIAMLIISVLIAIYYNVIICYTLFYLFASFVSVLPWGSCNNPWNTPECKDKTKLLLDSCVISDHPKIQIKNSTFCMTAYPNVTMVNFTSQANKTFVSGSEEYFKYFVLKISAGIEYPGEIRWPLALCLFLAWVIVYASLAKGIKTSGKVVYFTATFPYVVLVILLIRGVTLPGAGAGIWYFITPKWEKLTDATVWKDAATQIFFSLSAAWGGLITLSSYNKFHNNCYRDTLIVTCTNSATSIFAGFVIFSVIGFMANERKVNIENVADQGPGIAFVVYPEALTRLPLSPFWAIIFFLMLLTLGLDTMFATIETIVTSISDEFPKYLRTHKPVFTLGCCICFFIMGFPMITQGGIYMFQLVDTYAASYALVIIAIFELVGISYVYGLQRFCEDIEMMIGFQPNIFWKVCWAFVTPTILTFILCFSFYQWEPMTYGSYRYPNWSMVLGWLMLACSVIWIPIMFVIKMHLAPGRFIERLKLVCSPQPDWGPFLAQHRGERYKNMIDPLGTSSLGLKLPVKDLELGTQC

SMILES: NCC(=O)O [Glycine, glycine]
- Increase of glycine EC50 compared to WT (GlyT2 L198A mutant; L198A vs WT): 1.5 fold
- EC50 (GlyT2 L198A mutant; read-out: Glycine EC50, L198A (TM1)): 28 µM
- EC50 (GlyT2 Y430F mutant): 12 µM
- EC50 (GlyT2 Y430L mutant): 19 µM

From paper PMC9873984, “Membrane cholesterol regulates inhibition and substrate transport by the glycine transporter, GlyT2” (Life Science Alliance, 2023)
